Laboratory results: patent US10588935B2, “FC receptor (FcRn) binding peptides and uses thereof” (THE BRIGHAM AND WOMEN'S HOSPITAL, INC., priority 2013, dated 2020)
Where “and” joins values, the source holds several entries; their conditions need not be identical. Equal values may be shown once. Entries after “also recorded” stand apart in the source; their conditions may differ. Read-outs that look alike come from different tables or passages of the source. Bridge positions count the residues as written; N and C are the ends. Peptide text beside a SMILES is read from it.

What was measured:
[1] = target: shFcRn binding to HSA (Homo sapiens, UniProt P55899); experiment: SPR screening of FcRn binding peptides for inhibition of shFcRn binding to immobilized HSA; settings: 14 uM peptide, 5 uM shFcRn, pH 6
Chain of shFcRn binding to HSA (P55899 24-297 limits assumed): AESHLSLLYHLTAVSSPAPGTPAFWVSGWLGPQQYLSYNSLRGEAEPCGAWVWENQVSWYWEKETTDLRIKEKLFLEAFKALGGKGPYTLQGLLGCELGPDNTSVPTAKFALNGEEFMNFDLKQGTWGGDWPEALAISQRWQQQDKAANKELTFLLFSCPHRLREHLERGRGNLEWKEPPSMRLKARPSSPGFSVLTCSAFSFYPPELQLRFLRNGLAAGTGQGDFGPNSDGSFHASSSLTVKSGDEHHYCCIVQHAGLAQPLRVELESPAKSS
Chain of shFcRn binding to HSA (P61769 21-119 partner): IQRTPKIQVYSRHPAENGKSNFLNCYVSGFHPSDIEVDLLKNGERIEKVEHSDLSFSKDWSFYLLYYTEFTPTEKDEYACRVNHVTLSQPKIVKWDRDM
Description: Unreacted sites were then capped by injecting a solution of ethanolamine over the chip surface. A reference flow cell was activated with EDC/NHS and then blocked with ethanolamine.
Samples were injected over the chip for 3 minutes at 20 uL/min followed by a 2.5 minute dissociation phase.

[2] = target: FcRn (Homo sapiens, UniProt P55899); experiment: Competition for albumin or IgG binding to FcRn; set-up: Soluble human FcRn was expressed and purified by Biogen-Idec as previously described (29); settings: for competition with IgG or albumin for the FcRn binding site: competition experiments / SPR
Chain of FcRn (P55899 24-297 limits assumed): as the sequence (P55899 24-297 limits assumed) above
Chain of FcRn (P61769 21-119 partner): as the sequence (P61769 21-119 partner) above
Text: Peptide phage libraries, obtained from Dyax Corp, were screened against biotinylated soluble human FcRn bound to streptavidin beads, using 3 rounds of sequential pH 6.0 binding and pH 7.5 elution/amplification protocols. […] Peptide SYN514 was utilized during a 2nd peptide phage screen to occupy this site on FcRn prior to the addition of the phage libraries, and to identify albumin-competitive sequences. This strategy uncovered the albumin-competitive peptide, SYN571, and through structure-activity relationships, the shorter sequence SYN1753 (Ac-[…]-CONH2 (SEQ ID NO: 1) (disulfide) which bound to shFcRn with equivalent affinity as determined by SPR.

[3] = target: T1, soluble human FcRn (Homo sapiens, UniProt P55899); experiment: SPR (Biacore) affinity of peptides for immobilized soluble human FcRn; format: binding
T1 construct: Soluble human FcRn was expressed and purified by Biogen-Idec as previously described (29)
T1 sequence (P55899 24-297 limits assumed): as the sequence (P55899 24-297 limits assumed) above
T1 sequence (P61769 21-119 partner): as the sequence (P61769 21-119 partner) above
Description: SPR analyses were conducted using a Biacore 3000 or T100 instrument. Research-grade CM5 sensor chips and all coupling reagents for immobilization were purchased from Biacore. All proteins were cross-linked to the dextran surface of a CM5 sensor chip by standard amine coupling chemistry as recommended by Biacore. […] Binding experiments were performed at pH 6.0 or 7.4 using 50 mM phosphate, 100 mM sodium chloride and 0.01% surfactant P20. […] Bound albumin protein was then allowed to dissociate from the chip for 5 minutes with running buffer. Any remaining albumin was removed from the chip with a 60 second injection (2 cycles) of pH 8.0 Tris-HCl regeneration buffer (1 M Tris pH 8.0) at 25 μL/min flow rate. The binding responses recorded near the end of the association phase were plotted as a function of concentration. Equilibrium dissociation constants (KD), were derived from sensorgrams using the 1:1 binding model of BIAevaluation software 4.1.

[4] = Table 2, pH 6, immobilized shFcRn, data fit steady state or 2 site, read-out: Kd, pH 6** Biacore
[5] = Table 2, pH 7.4, data only 100 uM, therefore Kd may be higher, read-out: Kd, pH 7.4 Biacore
[6] = Table 1, pH 6, shFcRn immobilized on the sensor chip, steady state fit, read-out: Kd, pH 6** Biacore

CSCC[C@H](NC(=O)[C@@H](NC(C)=O)C(C)C)C(=O)N[C@@H](Cc1c[nH]cn1)C(=O)N[C@H]1CSSC[C@@H](C(=O)N[C@@H](CCC(=O)O)C(=O)N[C@@H](Cc2ccc(O)cc2)C(=O)N[C@H](C(N)=O)C(C)C)NC(=O)[C@H](CCCNC(=N)N)NC(=O)[C@H](Cc2ccccc2)NC(=O)[C@H](CCC(=O)O)NC(=O)[C@H](CCC(=O)O)NC(=O)[C@H](CC(=O)O)NC(=O)[C@H](Cc2c[nH]c3ccccc23)NC(=O)[C@H](Cc2ccccc2)NC1=O [SYN1383] (Ac-VMHCFWDEEFRCEYV-NH2; disulfide 4-12 (inferred))
block of shFcRn binding to immobilized HSA [1]: not able to block the binding of shFcRn to HSA | Competition for albumin or IgG binding to FcRn ([2]; Table 3): none | competition with IgG or albumin for the FcRn binding site [2]: not been shown to be competitive with IgG or any other proteins; also recorded: does not block IgG binding to FcRn; also recorded: non-IgG, non-albumin competitive | Kd Ratio 7.4/6.0 ([3]; Table 2): 34 | Kd [3, 4]: 0.032 µM | Kd [3, 5]: 1.1 µM

CC(=O)N[C@@H](C)C(=O)NCC(=O)N[C@@H](CCCNC(=N)N)C(=O)N[C@@H](Cc1ccc(O)cc1)C(=O)N[C@@H](Cc1ccccc1)C(=O)N[C@H]1CSSC[C@@H](C(=O)N[C@@H](CCC(=O)O)C(=O)N[C@@H](CCC(=O)O)C(=O)N[C@H](C(=O)NCC(=O)N[C@H](C(=O)NCC(=O)NCC(=O)NCC(=O)N[C@@H](CCCCN)C(N)=O)[C@@H](C)O)C(C)C)NC(=O)[C@H](Cc2c[nH]c3ccccc23)NC(=O)CNC(=O)[C@H](Cc2c[nH]cn2)NC(=O)[C@H](CCCCN)NC(=O)[C@H](Cc2c[nH]c3ccccc23)NC(=O)[C@H](CCCCN)NC(=O)[C@H]([C@@H](C)O)NC1=O [SYN571] (Ac-AGRYFCTKWKHGWCEEVGTGGGK-NH2; disulfide 6-14)
block of shFcRn binding to immobilized HSA [1]: completely block | competition with IgG or albumin for the FcRn binding site [2]: albumin-competitive; also recorded: inhibit shFcRn:albumin interactions, but not those of IgG: shFcRn | Kd Ratio 7.4/6.0 ([3]; Table 1): 29 | Kd [3, 6]: 0.45 µM and 0.5 µM | Kd ([3]; Table 1, pH 7.4, shFcRn immobilized, read-out: Kd, pH 7.4 Biacore): 13.1 µM

CSCC[C@H](NC(=O)[C@@H](NC(C)=O)C(C)C)C(=O)N[C@@H](Cc1c[nH]cn1)C(=O)N[C@H]1CSSC[C@@H](C(=O)N[C@@H](CC(=O)O)C(=O)N[C@@H](Cc2ccc(O)cc2)C(=O)NCC(N)=O)NC(=O)[C@H](CCCNC(=N)N)NC(=O)[C@H](Cc2ccccc2)NC(=O)[C@H](CCC(=O)O)NC(=O)[C@H](CCC(=O)O)NC(=O)[C@H](CC(=O)O)NC(=O)[C@H](Cc2c[nH]c3ccccc23)NC(=O)[C@H](Cc2ccccc2)NC1=O [SYN1381] (Ac-VMHCFWDEEFRCDYG-NH2; disulfide 4-12 (inferred))
Kd Ratio 7.4/6.0 ([3]; Table 2): 82

Ac-AGVMHCFWDEEFKCDQGGTGGGK-CONH2 (Ac-AGVMHCFWDEEFKCDQGGTGGGK-NH2; disulfide 6-14 (inferred)) [SYN514]
competition with IgG or albumin for the FcRn binding site [2]: non-IgG, non-albumin competitive

CC(=O)N[C@@H](CCCNC(=N)N)C(=O)N[C@@H](Cc1ccc(O)cc1)C(=O)N[C@@H](Cc1ccccc1)C(=O)N[C@@H]1C(=O)N[C@@H]([C@@H](C)O)C(=O)N[C@@H](CCCCN)C(=O)N[C@@H](Cc2c[nH]c3ccccc23)C(=O)N[C@@H](CCCCN)C(=O)N[C@@H](Cc2c[nH]cn2)C(=O)NCC(=O)N[C@@H](Cc2c[nH]c3ccccc23)C(=O)N[C@H](C(=O)N[C@@H](CCC(=O)O)C(=O)N[C@@H](CCC(=O)O)C(=O)N[C@H](C(N)=O)C(C)C)CSSC1(C)C [SYN1555]
Kd [3, 6]: > 100 µM

CC(=O)N[C@@H](CCCNC(=N)N)C(=O)N[C@@H](Cc1ccc(O)cc1)C(=O)N[C@@H](Cc1ccccc1)C(=O)N[C@@H]1C(=O)N[C@@H]([C@@H](C)O)C(=O)N[C@@H](CCCCN)C(=O)N[C@@H](Cc2c[nH]c3ccccc23)C(=O)N[C@@H](CCCCN)C(=O)N[C@@H](Cc2c[nH]cn2)C(=O)NCC(=O)N[C@@H](Cc2c[nH]c3ccccc23)C(=O)N[C@H](C(=O)N[C@@H](CCC(=O)O)C(=O)N[C@@H](CCC(=O)O)C(=O)N[C@H](C(N)=O)C(C)C)C(C)(C)SSC1(C)C [SYN1557, Ac-RYF-Pen-TKWKHGW-Pen-EEV-CONH2]
Kd [3, 6]: > 100 µM

CSCC[C@@H]1NC(=O)[C@H](CCC(=O)O)NC(=O)[C@H](CCC(=O)O)NC(=O)[C@H](CC(=O)O)NC(=O)[C@H](Cc2c[nH]c3ccccc23)NC(=O)[C@H](Cc2c[nH]c3ccccc23)NC(=O)[C@@H](NC(=O)[C@H](Cc2c[nH]cn2)NC(=O)[C@H](CCSC)NC(=O)[C@@H](NC(C)=O)C(C)C)CSSC[C@@H](C(=O)N[C@@H](CCCNC(=N)N)C(=O)N[C@@H](C)C(=O)N[C@@H](Cc2ccccc2)C(N)=O)NC(=O)[C@H](CC(C)C)NC1=O [SYN1533] (Ac-VMHCWWDEEMLCRAF-NH2; disulfide 4-12 (inferred))
Kd Ratio 7.4/6.0 ([3]; Table 2): 106

CSCC[C@H](NC(=O)[C@@H](NC(C)=O)C(C)C)C(=O)N[C@@H](Cc1c[nH]cn1)C(=O)N[C@H]1CSSC[C@@H](C(=O)N[C@@H](CC(=O)O)C(=O)N[C@@H](CCC(N)=O)C(=O)N[C@H](C(N)=O)C(C)C)NC(=O)[C@H](CCCCN)NC(=O)[C@H](Cc2ccccc2)NC(=O)[C@H](CCC(=O)O)NC(=O)[C@H](CCC(=O)O)NC(=O)[C@H](CC(=O)O)NC(=O)[C@H](Cc2c[nH]c3ccccc23)NC(=O)[C@H](Cc2ccccc2)NC1=O [SYN1260] (Ac-VMHCFWDEEFKCDQV-NH2; disulfide 4-12 (inferred))
Kd Ratio 7.4/6.0 ([3]; Table 2): 73 | Kd [3, 4]: 0.3 µM | Kd [3, 5]: 22 µM

CSCC[C@H](NC(=O)[C@H](Cc1ccc(O)cc1)NC(C)=O)C(=O)N[C@H](C(=O)N[C@H]1CSSC[C@@H](C(=O)N[C@@H](CCC(=O)O)C(=O)N[C@@H](Cc2ccc(O)cc2)C(=O)N[C@H](C(N)=O)C(C)C)NC(=O)[C@H](CO)NC(=O)[C@H](Cc2ccccc2)NC(=O)CNC(=O)[C@H](CC(=O)O)NC(=O)[C@H](C)NC(=O)[C@H](Cc2c[nH]c3ccccc23)NC(=O)[C@H](CCCCN)NC1=O)[C@@H](C)O [SYN1149] (Ac-YMTCKWADGFSCEYV-NH2; disulfide 4-12 (inferred))
Kd Ratio 7.4/6.0 ([3]; Table 2): 7.8 | Kd [3, 5]: 12 µM

CC(=O)N[C@@H](CCCNC(=N)N)C(=O)N[C@@H](Cc1ccc(O)cc1)C(=O)N[C@@H](Cc1ccccc1)C(=O)N[C@H]1CSSC[C@@H](C(=O)N[C@@H](CCC(=O)O)C(=O)N[C@@H](CCC(=O)O)C(=O)N[C@H](C(N)=O)C(C)C)NC(=O)[C@H](Cc2c[nH]c3ccccc23)NC(=O)CNC(=O)[C@H](Cc2c[nH]cn2)NC(=O)[C@H](C)NC(=O)[C@H](Cc2c[nH]c3ccccc23)NC(=O)[C@H](CCCCN)NC(=O)[C@H]([C@@H](C)O)NC1=O [SYN1548] (Ac-RYFCTKWAHGWCEEV-NH2; disulfide 4-12 (inferred))
Kd [3, 6]: 9.3 µM

CC(=O)N[C@@H](CCCNC(=N)N)C(=O)N[C@@H](Cc1ccc(O)cc1)C(=O)N[C@@H](Cc1ccccc1)C(=O)N[C@H]1CSSC(C)(C)[C@@H](C(=O)N[C@@H](CCC(=O)O)C(=O)N[C@@H](CCC(=O)O)C(=O)N[C@H](C(N)=O)C(C)C)NC(=O)[C@H](Cc2c[nH]c3ccccc23)NC(=O)CNC(=O)[C@H](Cc2c[nH]cn2)NC(=O)[C@H](CCCCN)NC(=O)[C@H](Cc2c[nH]c3ccccc23)NC(=O)[C@H](CCCCN)NC(=O)[C@H]([C@@H](C)O)NC1=O [SYN1556]
Kd [3, 6]: > 100 µM
